The record followed here is patent US8288379B2, “Thia-triaza-cyclopentazulenes” (Boehringer Ingelheim International GmbH, priority 2009, dated 2012).

The target in the assay is T1, FRAP1 (mTOR) kinase (Homo sapiens, UniProt P42345).
T1 construct: purchased Invitrogen PV4753
T1 sequence (P42345 1360-2549 limits assumed): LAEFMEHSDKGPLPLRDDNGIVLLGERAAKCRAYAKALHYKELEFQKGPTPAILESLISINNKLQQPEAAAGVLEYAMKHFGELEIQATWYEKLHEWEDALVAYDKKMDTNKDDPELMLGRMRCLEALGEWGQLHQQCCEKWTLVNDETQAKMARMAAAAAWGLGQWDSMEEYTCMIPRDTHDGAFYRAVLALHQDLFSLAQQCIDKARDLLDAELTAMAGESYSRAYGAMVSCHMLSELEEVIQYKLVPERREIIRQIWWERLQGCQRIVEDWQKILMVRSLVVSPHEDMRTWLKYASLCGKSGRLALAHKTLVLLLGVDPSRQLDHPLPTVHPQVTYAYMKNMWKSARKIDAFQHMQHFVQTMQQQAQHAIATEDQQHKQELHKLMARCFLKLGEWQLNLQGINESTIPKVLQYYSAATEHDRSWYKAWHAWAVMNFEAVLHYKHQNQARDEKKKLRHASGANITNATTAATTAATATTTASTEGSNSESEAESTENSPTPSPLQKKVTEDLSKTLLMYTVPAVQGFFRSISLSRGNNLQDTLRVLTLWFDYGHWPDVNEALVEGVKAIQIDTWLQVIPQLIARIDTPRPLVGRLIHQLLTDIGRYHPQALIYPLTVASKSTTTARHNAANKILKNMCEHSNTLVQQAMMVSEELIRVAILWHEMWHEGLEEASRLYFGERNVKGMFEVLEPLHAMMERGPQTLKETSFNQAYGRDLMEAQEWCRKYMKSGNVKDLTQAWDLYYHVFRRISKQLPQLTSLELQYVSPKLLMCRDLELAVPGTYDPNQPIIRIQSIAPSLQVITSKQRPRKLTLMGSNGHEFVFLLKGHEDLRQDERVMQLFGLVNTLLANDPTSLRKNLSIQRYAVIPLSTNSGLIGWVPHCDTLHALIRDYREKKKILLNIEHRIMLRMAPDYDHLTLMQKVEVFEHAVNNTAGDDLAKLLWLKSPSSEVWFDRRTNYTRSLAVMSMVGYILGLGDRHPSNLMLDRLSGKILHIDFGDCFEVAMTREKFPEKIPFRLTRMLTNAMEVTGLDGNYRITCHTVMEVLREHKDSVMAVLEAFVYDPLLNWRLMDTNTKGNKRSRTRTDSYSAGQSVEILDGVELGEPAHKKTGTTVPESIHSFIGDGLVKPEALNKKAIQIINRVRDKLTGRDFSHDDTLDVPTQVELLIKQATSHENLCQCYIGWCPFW
Briefly: Inhibition of mTOR-induced p-4E-BP1 phosphorylation (TR-FRET mTOR Activity Kit; Invitrogen). The format is biochemical. The conditions noted are these: 400 nM GFP-4E-BP1 substrate, ~150 ng/mL mTOR, one hour at room temperature. From the text:
Inhibition of mTOR-Induced p-4E-BP1 Phosphorylation (TR-FRET mTOR Activity Kit; Invitrogen)
• GFP-4E-BP1 substrate; Invitrogen order no. PV4759 • Lanthascreen Tb-anti-p4E-BP1 (pThr46) Antibody Kit; Invitrogen order no. PV4758 • FRAP1 (mTOR) kinase; Invitrogen order no. […] Preparation of Reagents: Note: Thaw and keep mTOR, the substrate, ATP, and the antibody on ice prior to making working dilutions. Working dilutions of these components can be kept at room temperature for short periods of time the day of use. 1. Add 2 ml of 5× Assay Buffer to 8 ml water to prepare 10 ml of 1× Assay Buffer. Note: The concentration of 1× Assay Buffer is 50 mM HEPES pH 7.5, 0.01% Polysorbate 20, 1 mM EGTA, and 10 mM MnCl2. 2. Prepare Antibody/EDTA Solution by first adding 2.75 n1 of Tb-anti p4E-BP1 Antibody to 2397 n1 of LanthaScreen™ TR-FRET Dilution Buffer. Then, add 100 n1 of 0.5 M EDTA. 3. Prepare 4× Substrate/Enzyme Solution by first adding 72 n1 of GFP-4E-BP1 (22 nM) to 926 n1 of 1× Assay Buffer. Then, add 1.6 n1 of mTOR (0.45 mg/mL). 4. Prepare ATP Solution by adding 3.2 n1 of 10 mM ATP to 1997 n1 of 1× Assay Buffer. Serial Dilution of Inhibitors (16 Point Curve): Note: It is recommended that inhibitors be serially diluted in DMSO, then diluted to a 4× working concentration with 1× Assay Buffer. The below procedure describes dilution of compounds in a 96-well format prior to transfer to a 384-well format for kinase assays. This procedure calls for dilution of the compounds in 2 adjacent columns of a 96-well plate, which upon transfer to a single column of a 384-well plate with an 8-channel pipette will align the samples in order of concentration. 1. Dispense 40 n1 of DMSO to two adjacent columns of a 96 well plate per compound (e.g. columns 1 and 2). 2. Add 10 n1 of inhibitor stock (10 mM) to the first well of the first column (A1) and mix. 3. Remove 10 n1 from A1 and transfer to the adjacent well in the next column (B1) and mix. 4. Remove 10 n1 from B1 and transfer to the next well in the first column (B2) and mix. 5. Repeat this dilution pattern through well H1 and leave the last well (H2) as DMSO only. 6. Remove 4 n1 of diluted compounds and add to 96 n1 of 1× Assay Buffer in a 96-well plate making 4× compound dilutions. Kinase Reaction: 1. Add 2.5 μl of 4× compound dilutions from the first column of the 96-well plate to every other well of column 1 of a 384-well plate with an 8-channel pipette. Repeat for columns 2 and 3. 2. Add 2.5 n1 of 4× compound dilutions from the second column of the 96-well plate to the empty wells of column 1 of the 384-well plate with an 8-channel pipette. Repeat for columns 2 and 3. Note: This procedure aligns the compound dilutions in order of concentration. 3. Add 2.5 n1 of 4× Enzyme/Substrate Solution to all columns 1-6. 4. Preincubate for 30 min. at RT (shaker). 5. Add 5 n1 of ATP Solution to all wells to start reactions. 6. Shake the assay plate on a plate shaker for 30 seconds. 7. Incubate the assay plate for one hour at room temperature (20-25° C.). Stop Step and Fluorescence Detection: 1. Add 10 n1 of Antibody/EDTA Solution to each well in columns 1-9. 2. Shake the assay plate on a plate shaker for 30 seconds. 3. Incubate the assay plate for one hour at room temperature (20-25° C.). 4. Measure the GFP (FRET) and terbium (reference) emission signals on a fluorescence plate reader (e.g. Perkin Elmer Envision). Data Analysis: 1. Calculate the emission ratio for each sample by dividing the GFP (FRET) signal by the terbium (reference) signal. 2. Plot the concentration of each compound versus the emission ratio. Determine the concentration of compound required to reach 50% of the maximum signal (IC50). Determination of IC50 values can be obtained by curve fitting (sigmoidal dose response, variable slope) using Prism software from GraphPad). Inhibition of Proliferation: CyQuant PC-3 Description: […]
For orientation: TR-FRET usually uses a lanthanide donor and a delayed reading to cut background.
Turning to `CCNc1ccc(-c2nn(-c3ccccc3Br)c3c2CCCc2nc(NC(C)=O)sc2-3)cn1` [Example B-74], the midpoint of inhibition, the IC50, lay at 0.168 µM.

The molecule `CNc1ccc(-c2nn(-c3cccnc3)c3c2CCCc2nc(NC(C)=O)sc2-3)cn1` [Example B-84] gave an IC50 of 0.05 µM.

Take `CCc1ccccc1-n1nc(-c2ccc(NC)nc2)c2c1-c1sc(NC(C)=O)nc1CCC2` [Example B-88, N-[1-(2-Ethyl-phenyl)-3-(6-methylamino-pyridin-3-yl)-1,4,5,6-tetrahydro-9-thia-1,2,7-triaza-cyclopenta[e]azulen-8-yl]-acetamide]: the IC50 came to 0.269 µM.

`CC(=O)Nc1nc2c(s1)-c1c(c(-c3cncn3C)nn1-c1ccccc1C)CCC2` [Example B-93] displayed an IC50 of 1.11 µM.

Regarding `CC(=O)Nc1nc2c(s1)-c1c(c(-c3cncn3C)nn1-c1ccccc1)CCC2` [Example B-94], the IC50 came out at 8.36 µM.

Turning to `CC(=O)Nc1nc2c(s1)-c1c(c(-c3ccc(C)nc3)nn1-c1cccnc1)CCC2` [Example B-95], the IC50 was found to be 0.074 µM.

Molecule `CN(C)C(=O)Nc1nc2c(s1)-c1c(c(-c3ccc(N)nc3)nn1-c1ccccc1F)CCC2` [Example B-97] showed an IC50 of 0.175 µM.

Regarding `CNc1ccc(-c2nn(CCN3CCOCC3)c3c2CCCc2nc(NC(=O)N(C)C)sc2-3)cn1` [Example B-98], half-maximal inhibition (IC50) required 0.737 µM.

`CCNc1ccc(-c2nn(-c3ccccc3C)c3c2CCCc2nc(NC(=O)COC)sc2-3)cn1` [Example B-100, N-[3-(6-Ethylamino-pyridin-3-yl)-1-o-tolyl-1,4,5,6-tetrahydro-9-thia-1,2,7-triaza-cyclopenta[e]azulen-8-yl]-2-methoxy-acetamide] displayed an IC50 of 0.286 µM.

In turn, `Cc1ccccc1-n1nc(-c2ccc(N)nc2)c2c1-c1sc(NC(=O)CN)nc1CCC2` [Example B-102] yielded an IC50 of 0.032 µM.

In the case of `COCC(=O)Nc1nc2c(s1)-c1c(c(-c3ccc(N)nc3)nn1-c1ccccc1C)CCC2` [Example B-104, N-[3-(6-Amino-pyridin-3-yl)-1-o-tolyl-1,4,5,6-tetrahydro-9-thia-1,2,7-triaza-cyclopenta[e]azulen-8-yl]-2-methoxy-acetamide], half-maximal inhibition (IC50) was put at 0.072 µM.

`CC(=O)Nc1nc2c(s1)-c1c(c(-c3ccc(N)nc3)nn1CCN1CCOCC1)CCC2` [Example B-105] displayed an IC50 of 1.39 µM.

With `CNc1ccc(-c2nn(-c3ccccc3C)c3c2CCCc2nc(NC(=O)COC)sc2-3)cn1` [Example B-107, 2-Methoxy-N-[3-(6-methylamino-pyridin-3-yl)-1-o-tolyl-1,4,5,6-tetrahydro-9-thia-1,2,7-triaza-cyclopenta[e]azulen-8-yl]-acetamide], the IC50 worked out at 0.427 µM.

Molecule `CC(=O)Nc1nc2c(s1)-c1c(c(-c3c[nH]cn3)nn1CCN(C)C)CCC2` [Example B-110] returned an IC50 of 0.84 µM.

For the molecule `CC(=O)Nc1nc2c(s1)-c1c(c(-c3c[nH]c(C)n3)nn1CCN(C)C)CCC2` [Example B-119], the IC50 is 1.88 µM.

Molecule `CCNc1ccc(-c2nn(C(C)(C)C)c3c2CCCc2nc(NC(C)=O)sc2-3)cn1` [Example B-123] had an IC50 of 1.14 µM.

As to `CCNc1ccc(-c2nn(CCN3CCOCC3)c3c2CCCc2nc(NC(C)=O)sc2-3)cn1` [Example B-124], the midpoint of inhibition, the IC50, lay at 0.994 µM.

The molecule `CCNc1ccc(-c2nn(C(C)COC)c3c2CCCc2nc(NC(C)=O)sc2-3)cn1` (stereo not drawn) [Example B-126] came in with an IC50 of 0.084 µM.

Regarding `CCNc1ccc(-c2nn(C(C)C)c3c2CCCc2nc(NC(=O)NC)sc2-3)cn1` [Example B-140], the IC50 was determined as 0.182 µM.

On to `CCNc1ccc(-c2nn(-c3cccnc3C)c3c2CCCc2nc(NC(=O)N(C)C)sc2-3)cn1` [Example B-141], for which half-maximal inhibition (IC50) was put at 0.512 µM.

`CNC(=O)Nc1nc2c(s1)-c1c(c(-c3ccc(NC)nc3)nn1-c1ccccc1C)CCC2` [Example B-142, 1-Methyl-3-[3-(6-methylamino-pyridin-3-yl)-1-o-tolyl-1,4,5,6-tetrahydro-9-thia-1,2,7-triaza-cyclopent[e]azulen-8-yl]-urea] yielded an IC50 of 0.092 µM.

The term IC50 denotes the concentration at which inhibition is half-maximal. High values mean weaker potency, low ones greater potency.
